Assay results reported in ChEMBL document CHEMBL5136990, “Histone deacetylase 6 inhibitors with blood-brain barrier penetration as a potential strategy for CNS-Disorders therapy” (Eur J Med Chem, 2022).
Blank lines part the entries; values can stand above or below the compound they belong to.

Key:
[1] = target: T1, Protein deacetylase HDAC6 (Homo sapiens, UniProt Q9UBN7); assay: Inhibition of HDAC6 (unknown origin)
T1 sequence (Q9UBN7 whole entry): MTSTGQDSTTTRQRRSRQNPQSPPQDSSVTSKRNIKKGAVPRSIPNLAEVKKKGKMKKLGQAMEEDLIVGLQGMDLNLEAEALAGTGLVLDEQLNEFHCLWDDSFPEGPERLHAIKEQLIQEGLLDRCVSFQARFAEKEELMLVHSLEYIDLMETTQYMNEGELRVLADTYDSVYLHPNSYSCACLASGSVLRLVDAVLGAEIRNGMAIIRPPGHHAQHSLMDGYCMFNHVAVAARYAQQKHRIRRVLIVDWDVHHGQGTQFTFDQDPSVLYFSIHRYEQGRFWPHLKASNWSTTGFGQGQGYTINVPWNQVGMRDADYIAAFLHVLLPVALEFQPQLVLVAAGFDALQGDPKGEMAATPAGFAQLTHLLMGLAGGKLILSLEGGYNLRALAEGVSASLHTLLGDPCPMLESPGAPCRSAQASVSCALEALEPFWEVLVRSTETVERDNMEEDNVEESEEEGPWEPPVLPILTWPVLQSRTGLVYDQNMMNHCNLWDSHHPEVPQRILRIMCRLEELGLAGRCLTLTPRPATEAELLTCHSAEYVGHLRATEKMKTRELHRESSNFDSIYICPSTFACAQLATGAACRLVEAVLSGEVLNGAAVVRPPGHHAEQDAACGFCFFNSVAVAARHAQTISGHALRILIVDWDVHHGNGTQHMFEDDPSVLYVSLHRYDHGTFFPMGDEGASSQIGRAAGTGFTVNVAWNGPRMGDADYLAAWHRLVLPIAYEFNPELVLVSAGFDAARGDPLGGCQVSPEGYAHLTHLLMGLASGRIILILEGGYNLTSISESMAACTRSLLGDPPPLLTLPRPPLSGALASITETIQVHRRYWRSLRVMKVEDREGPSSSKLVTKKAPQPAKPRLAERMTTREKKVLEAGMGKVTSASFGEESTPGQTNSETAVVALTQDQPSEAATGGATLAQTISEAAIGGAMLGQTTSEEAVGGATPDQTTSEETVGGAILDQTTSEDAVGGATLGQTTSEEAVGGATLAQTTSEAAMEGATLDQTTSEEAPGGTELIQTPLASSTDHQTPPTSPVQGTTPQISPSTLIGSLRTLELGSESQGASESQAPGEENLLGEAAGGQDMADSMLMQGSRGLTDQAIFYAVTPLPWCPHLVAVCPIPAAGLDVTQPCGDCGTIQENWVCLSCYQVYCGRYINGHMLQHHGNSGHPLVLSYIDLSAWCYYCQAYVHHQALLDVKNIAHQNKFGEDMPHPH

[2] = target: T2, Histone deacetylase 2 (Homo sapiens, UniProt Q92769); assay: Inhibition of HDAC2 (unknown origin)
[3] = target: cGMP-specific 3',5'-cyclic phosphodiesterase (Homo sapiens, UniProt O76074); assay: Inhibition of PDE5 (unknown origin)
[4] = target: High affinity cGMP-specific 3',5'-cyclic phosphodiesterase 9A (Homo sapiens, UniProt O76083); assay: Inhibition of PDE9 (unknown origin)
[5] = target: T3, Histone deacetylase 1 (Homo sapiens, UniProt Q13547); assay: Inhibition of HDAC1 (unknown origin)
[6] = Inhibition of full-length recombinant human HDAC3/NcoR2 using RHKKAc peptide as substrate by fluorescence based assay
[7] = target: T2, Histone deacetylase 2; assay: Inhibition of recombinant human HDAC2 using fluorogenic substrate
[8] = target: T3, Histone deacetylase 1; assay: Inhibition of recombinant human HDAC1 using fluorogenic substrate
[9] = target: T4, Polyamine deacetylase HDAC10 (Homo sapiens, UniProt Q969S8); assay: Inhibition of recombinant human HDAC10 using fluorogenic substrate
T4 sequence (Q969S8 whole entry): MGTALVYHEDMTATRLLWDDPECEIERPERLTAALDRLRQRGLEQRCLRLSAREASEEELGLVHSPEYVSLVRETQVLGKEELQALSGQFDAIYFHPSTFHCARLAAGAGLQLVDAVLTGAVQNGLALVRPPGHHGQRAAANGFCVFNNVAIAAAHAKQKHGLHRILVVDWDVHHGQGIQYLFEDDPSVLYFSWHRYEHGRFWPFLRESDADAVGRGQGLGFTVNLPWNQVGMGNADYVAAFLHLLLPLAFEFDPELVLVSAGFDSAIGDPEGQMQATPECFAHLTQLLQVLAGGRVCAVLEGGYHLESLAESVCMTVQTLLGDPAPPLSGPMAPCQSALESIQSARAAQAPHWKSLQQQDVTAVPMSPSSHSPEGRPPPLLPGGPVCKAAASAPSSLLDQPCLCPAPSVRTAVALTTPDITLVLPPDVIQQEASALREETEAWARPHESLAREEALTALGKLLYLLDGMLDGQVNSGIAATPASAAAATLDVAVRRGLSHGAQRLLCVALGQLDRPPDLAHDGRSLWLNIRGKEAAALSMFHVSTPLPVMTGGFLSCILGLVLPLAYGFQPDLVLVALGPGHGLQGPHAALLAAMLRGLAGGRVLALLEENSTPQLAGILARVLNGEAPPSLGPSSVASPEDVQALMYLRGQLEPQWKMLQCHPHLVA

[10] = target: Histone deacetylase 3 (Homo sapiens, UniProt O15379); assay: Inhibition of recombinant human HDAC3 using fluorogenic substrate
Histone deacetylase 3, sequence (O15379 whole entry): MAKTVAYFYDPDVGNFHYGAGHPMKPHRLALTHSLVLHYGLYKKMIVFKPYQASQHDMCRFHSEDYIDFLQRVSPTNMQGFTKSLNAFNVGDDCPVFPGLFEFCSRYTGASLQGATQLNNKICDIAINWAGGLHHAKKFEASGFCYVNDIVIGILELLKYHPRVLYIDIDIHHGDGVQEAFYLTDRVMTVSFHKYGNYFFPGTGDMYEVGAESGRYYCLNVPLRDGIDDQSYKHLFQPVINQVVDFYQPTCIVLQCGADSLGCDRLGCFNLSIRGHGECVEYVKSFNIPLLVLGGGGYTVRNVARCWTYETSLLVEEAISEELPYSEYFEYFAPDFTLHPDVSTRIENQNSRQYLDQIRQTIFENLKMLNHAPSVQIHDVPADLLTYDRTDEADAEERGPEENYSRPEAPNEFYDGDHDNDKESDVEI

T3 sequence (Q13547 whole entry): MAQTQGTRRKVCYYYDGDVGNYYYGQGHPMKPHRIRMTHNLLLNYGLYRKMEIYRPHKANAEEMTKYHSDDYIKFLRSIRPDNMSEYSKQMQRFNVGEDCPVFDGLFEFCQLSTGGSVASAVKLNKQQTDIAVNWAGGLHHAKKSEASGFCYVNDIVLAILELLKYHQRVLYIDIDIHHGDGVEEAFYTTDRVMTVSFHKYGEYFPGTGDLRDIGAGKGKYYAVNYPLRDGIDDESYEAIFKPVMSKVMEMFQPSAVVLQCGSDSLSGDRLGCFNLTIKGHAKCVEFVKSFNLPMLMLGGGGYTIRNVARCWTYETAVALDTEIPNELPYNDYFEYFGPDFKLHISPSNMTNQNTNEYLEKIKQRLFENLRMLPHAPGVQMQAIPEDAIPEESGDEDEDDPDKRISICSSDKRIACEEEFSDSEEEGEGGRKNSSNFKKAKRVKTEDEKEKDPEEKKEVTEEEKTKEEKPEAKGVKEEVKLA
T2 sequence (Q92769 whole entry): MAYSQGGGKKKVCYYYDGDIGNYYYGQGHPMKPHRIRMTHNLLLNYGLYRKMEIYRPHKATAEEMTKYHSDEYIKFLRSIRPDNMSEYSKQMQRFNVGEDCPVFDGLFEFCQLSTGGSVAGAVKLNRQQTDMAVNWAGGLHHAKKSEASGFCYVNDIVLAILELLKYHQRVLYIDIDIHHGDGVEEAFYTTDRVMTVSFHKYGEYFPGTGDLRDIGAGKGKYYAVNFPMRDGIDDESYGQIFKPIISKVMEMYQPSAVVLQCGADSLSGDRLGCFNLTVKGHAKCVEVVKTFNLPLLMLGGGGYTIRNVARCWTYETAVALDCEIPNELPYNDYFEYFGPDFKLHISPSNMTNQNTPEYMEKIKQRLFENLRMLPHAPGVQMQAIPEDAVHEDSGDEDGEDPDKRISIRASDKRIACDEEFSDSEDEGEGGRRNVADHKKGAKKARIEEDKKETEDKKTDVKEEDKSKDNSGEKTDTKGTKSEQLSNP
High affinity cGMP-specific 3',5'-cyclic phosphodiesterase 9A, sequence (O76083 whole entry): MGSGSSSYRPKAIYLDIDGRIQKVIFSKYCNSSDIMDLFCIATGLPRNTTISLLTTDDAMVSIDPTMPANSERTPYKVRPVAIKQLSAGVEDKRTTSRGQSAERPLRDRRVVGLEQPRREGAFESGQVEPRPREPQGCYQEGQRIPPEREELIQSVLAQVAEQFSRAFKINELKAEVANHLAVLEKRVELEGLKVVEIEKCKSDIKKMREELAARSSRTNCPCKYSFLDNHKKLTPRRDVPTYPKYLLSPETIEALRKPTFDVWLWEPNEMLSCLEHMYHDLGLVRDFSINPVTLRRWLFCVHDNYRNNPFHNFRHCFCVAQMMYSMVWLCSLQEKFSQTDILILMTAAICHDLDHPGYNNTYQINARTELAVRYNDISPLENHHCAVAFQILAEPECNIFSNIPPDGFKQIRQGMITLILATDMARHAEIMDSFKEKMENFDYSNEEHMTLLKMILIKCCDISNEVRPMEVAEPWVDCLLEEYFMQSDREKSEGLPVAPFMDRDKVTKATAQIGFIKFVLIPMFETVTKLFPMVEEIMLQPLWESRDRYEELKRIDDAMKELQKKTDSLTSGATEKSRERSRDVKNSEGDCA

IC50 [1]: 0.04 µM
IC50 [2]: 3.53 µM
IC50 [3]: > 10 µM
IC50 [4]: 0.107 µM
IC50 [5]: 0.593 µM
Compound: C[C@@H]1CN(Cc2ccc(C(=O)NO)cc2)C[C@H]1c1nc2c(cnn2C2CCCC2)c(=O)[nH]1

IC50 [6]: 29.5 µM
Compound: O=C(NO)c1ccc(CN2CCCc3cc(Cl)ccc32)cc1

IC50 [7]: > 10 µM
IC50 [8]: > 10 µM
IC50 [9]: > 10 µM
IC50 [10]: > 10 µM
Compound: CN(Cc1ccc(C(=O)NO)cc1[18F])CC12CC3CC(CC(C3)C1)C2
